From patent US20250376473A1, “PRMTS INHIBITOR AND USE THEREOF” (Cytosinlab Therapeutics Co., Ltd., priority 2022, published 2025)
pIC50: −log10 of the molar value. Like-named read-outs stand apart in the source and are kept apart here.

Tests used:
[1] = test system: HCT116 MTAP WT cells; assay: Proliferation inhibition of HCT116 cells in vitro (CellTiter Glo); assay type: cell-based; details: 6 days, 9 concentrations starting from 30 μM, read-out: Cell proliferation inhibition rate HCT116 MTAP WT IC50 (nm)
Text: (§1) Biological Test Example 2 Proliferation Inhibition of HCT116 and HCT116 MTAP-KO Cells in Vitro
(§2) HCT116 cell line was purchased from the Chinese Academy of Sciences Cell Bank, and the MTAP gene was knocked out by CRISPR/Cas9 technology to obtain HCT116-MTAP-KO cell line.
(§3) McCoy's 5A medium (Gibco, catalog No. 16600082), fetal bovine serum (Gibco, catalog No. 10099141C), penicillin-streptomycin double antibody (Gibco, catalog No. 15140122), pancreatic enzyme (Gibco, catalog No. 25200056), CellTiter Glo assay kit (Promega, catalog No. G7572), 384-well transparent flat-bottomed black walled cell culture plate (Corning, catalog No. 3764), ultra micro sampler (Tecan, catalog No.D300e), Multimode reader (Biotek, catalog No. SynergyHTX)
(§4) 1. Cell culture: HCT116 and HCT116-MTAP-KO cells were cultured in McCoy'5A medium+10% fetal bovine serum+1% penicillin-streptomycin double antibody; to ensure that they were always in the logarithmic growth phase and the cell viability greater than 95%.
(§5) 2. Compound concentration gradient preparation: The compound to be tested was added to a 384-well plate using an ultra micro sampler, starting from 30 μM (HCT116 cells) or 3 μM (HCT116-MTAP-KO cells), and diluted with DMSO at 3 times for a total of 9 concentrations and set up three duplicate wells.
(§6) 3. Treatment of cells with compounds: Trypsin-digested HCT116 or HCT116-MTAP-KO cell suspension was added to the 384-well plates spotted with the compounds to be tested at 40 μL per well, i.e., 100 cells per well, and the final concentration of DMSO was 0.4%. The cell culture plate was incubated at 37° C. in a 5% CO2 incubator for 6 days.
(§7) 4. Detection: 20 μL of CellTiter Glo reagent was added to each well of the cell culture plate and incubated at room temperature for 30 minutes. A multimode reader was used to detect the luminescence signal at […].
(§8) The data was fitted with GraphPad Prism 8.0 software using a four parameter inhibitor-reaction model to obtain the IC50 value (half inhibitory concentration) of the test compounds.

[2] = test system: HCT116-MTAP-KO cells (HCT116 MTAP null); assay: Proliferation inhibition of HCT116 MTAP-KO cells in vitro (CellTiter Glo); assay type: cell-based; details: 6 days, 9 concentrations starting from 3 μM, read-out: Cell proliferation inhibition rate HCT116 MTAP null IC50 (nm)
Text: as §1, §2, §3, §4, §5, §6, §7, §8

| SMILES | pIC50 ([1]; Homo sapiens, HCT-116, 144 h) | pIC50 ([2]; HCT116-MTAP null, 144 h) | pIC50 [1] | pIC50 [2] |
| --- | --- | --- | --- | --- |
| Cc1ncc2c(N)nc3ccc(C(=O)N(Cc4ccc(C(F)(F)F)cn4)C(C)c4ncccn4)cc3n12 (stereo not shown) [Example 2] | 5.00 to 6.00 | 6.00 to 7.00 |  |  |
| Cc1nc(C)n2c1c(N)nc1ccc(C(=O)N(Cc3ccc(C(F)(F)F)cn3)C(C)c3ncccn3)cc12 (stereo not shown) [Example 3] | 5.00 to 6.00 | > 7.00 |  |  |
| CCN(Cc1ccc(C(F)(F)F)cn1)C(=O)c1cc2c(cn1)nc(N)c1cnc(C)n12 [Example 9] | 5.00 to 6.00 | > 7.00 |  |  |
| Cc1ccc2c(N)nc3ccc(C(=O)N(Cc4ccc(C(F)(F)F)cn4)C(C)c4ncccn4)cc3n12 (stereo not shown) [Example 12] | 5.00 to 6.00 | 6.00 to 7.00 |  |  |
| Cc1nc(C)n2c1c(N)nc1ccc(C(=O)N(Cc3ccc(C(F)(F)F)cn3)C(C)c3ncccn3)cc12 (stereo not shown) [Example 14] |  |  | 5.00 to 6.00 | > 7.00 |
| CCN(Cc1ccc(C(F)(F)F)cn1)C(=O)c1ccc2nc(N)c3c(C)nc(C)n3c2c1 [Example 15, 4-Amino-N-ethyl-1,3-dimethyl-N-((5-trifluoromethyl)pyridin-2-ylmethyl) imidazolo[1,5-a]quinoxalin-8-carboxamide] | 5.00 to 6.00 | 6.00 to 7.00 |  |  |
| Cc1ncc2c(N)nc3cnc(C(=O)N(Cc4ccc(C(F)(F)F)cn4)C(C)c4ncccn4)cc3n12 (stereo not shown) [Example 16] | 5.00 to 6.00 | 6.00 to 7.00 |  |  |
| CCN(Cc1ccc(C(F)(F)F)cn1)C(=O)c1cc2c(cc1F)nc(N)c1cnc(C)n12 [Example 18] | 5.00 to 6.00 | > 7.00 |  |  |
| COCCN(Cc1cn2ccccc2n1)C(=O)c1cc2c(cc1F)nc(N)c1cnc(C)n12 [Example 27] | 6.00 to 7.00 | > 7.00 |  |  |
| Cc1cn2c(n1)c(N)nc1ccc(C(=O)N3[C@H](C)COC[C@@H]3c3cn4ccccc4n3)cc12 [Example 29] | 5.00 to 6.00 | 6.00 to 7.00 |  |  |
| Cc1cn2c(n1)c(N)nc1cc(F)c(C(=O)N3[C@H](C)COC[C@@H]3c3cn4cc(C(F)(F)F)ccc4n3)cc12 [Example 31] | 6.00 to 7.00 | > 7.00 |  |  |
| Cc1ncc2c(N)nc3cc(F)c(C(=O)N4C(C)COC[C@@H]4c4ncc(C(F)(F)F)cc4F)cc3n12 (stereo partly shown) [Example 34] | 5.00 to 6.00 | > 7.00 |  |  |
| Cc1ncc2c(N)nc3cc(F)c(C(=O)N4[C@H](C)COC[C@@H]4c4cn5ccccc5n4)cc3n12 [Example 38] | 5.00 to 6.00 | 6.00 to 7.00 |  |  |
| Cc1ncc2c(N)nc3cc(F)c(C(=O)N(C)C4COc5cc(Br)ccc54)cc3n12 (stereo not shown) [Example 40] | 5.00 to 6.00 | 6.00 to 7.00 |  |  |
| Cc1ncc2c(N)nc3cc(F)c(C(=O)N(C)C4COc5cc(-c6cnn(C(F)(F)F)c6)ccc54)cc3n12 (stereo not shown) [Example 46] | 6.00 to 7.00 | 5.00 to 6.00 |  |  |
| Cc1ncc2c(N)nc3cc(F)c(C(=O)N(Cc4cn5cc(C#N)ccc5n4)c4cnn(C)c4)cc3n12 [Example 63] | 5.00 to 6.00 | 5.00 to 6.00 |  |  |
| Cc1ncc2c(N)nc3cc(F)c(C(=O)N(Cc4cn5ccccc5n4)C4CCN(C)C4)cc3n12 (stereo not shown) [Example 65] | 5.00 to 6.00 | 5.00 to 6.00 |  |  |
| Cc1ncc2c(N)nc3cc(F)c(C(=O)N(Cc4cn5ccc(C(F)(F)F)cc5n4)c4cnn(C)c4)cc3n12 [Example 70] | 5.00 to 6.00 | 6.00 to 7.00 |  |  |
| CCN(Cc1nc(-c2ccc(C(F)(F)F)nc2)cs1)C(=O)c1cc2c(cc1F)nc(N)c1cnc(C)n12 [Example 73] | 5.00 to 6.00 | 6.00 to 7.00 |  |  |
| CCN(C(=O)c1cc2c(cc1F)nc(N)c1cnc(C)n12)C1COc2cc(-c3cnn(C(F)(F)F)c3)ccc21 (stereo not shown) [Example 75] | 5.00 to 6.00 | 6.00 to 7.00 |  |  |
| CCN(Cc1nc(-c2cnn(C(F)(F)F)c2)cs1)C(=O)c1cc2c(cc1F)nc(N)c1cnc(C)n12 [Example 80] | 5.00 to 6.00 | 6.00 to 7.00 |  |  |
| CCN(Cc1ccc(C(F)(F)F)nn1)C(=O)c1cc2c(cc1F)nc(N)c1cnc(C)n12 [Example 81] | 5.00 to 6.00 | 6.00 to 7.00 |  |  |
| Cc1ncc2c(N)nc3cc(F)c(C(=O)N(Cc4ccc(C(F)(F)F)cn4)c4cnn(C)n4)cc3n12 [Example 83] | 5.00 to 6.00 | > 7.00 |  |  |
| CCN(Cc1ccc(OC2CC2)cn1)C(=O)c1cc2c(cc1F)nc(N)c1cnc(C)n12 [Example 85] | 5.00 to 6.00 | > 7.00 |  |  |
| Cc1ncc2c(N)nc3cc(F)c(C(=O)N4C(C)COCC4c4ccc(OC5CC5)cc4)cc3n12 (stereo not shown) [Example 87] | 5.00 to 6.00 | > 7.00 |  |  |

| SMILES | pIC50 ([1]; Homo sapiens, HCT-116, 144 h) | pIC50 ([2]; HCT116-MTAP null, 144 h) | pIC50 [1] | pIC50 [2] |
| --- | --- | --- | --- | --- |
| Cc1ncc2c(N)nc3cc(F)c(C(=O)N(Cc4ccc(C(F)(F)F)cn4)c4cn[nH]c4)cc3n12 [Example 88] | 5.00 to 6.00 | 6.00 to 7.00 |  |  |
| Cc1ncc2c(N)nc3cc(F)c(C(=O)N4C(C)COCC4c4cnc(C(F)(F)F)s4)cc3n12 (stereo not shown) [Example 89] | 5.00 to 6.00 | > 7.00 |  |  |
| Cc1ncc2c(N)nc3cc(F)c(C(=O)N(Cc4ccc(C(F)(F)F)cn4)c4cnn(C)c4)cc3n12 [Example 90] | 5.00 to 6.00 | > 7.00 |  |  |
| CCOc1ccc(CN(CC)C(=O)c2cc3c(cc2F)nc(N)c2c(C)ncn23)nn1 [Example 95] |  |  | 5.00 to 6.00 | 6.00 to 7.00 |
| CCN(Cc1ccc(OC2COC2)cn1)C(=O)c1cc2c(cc1F)nc(N)c1cnc(C)n12 [Example 99] | 5.00 to 6.00 | 6.00 to 7.00 |  |  |
| Cc1ncn2c1c(N)nc1cc(F)c(C(=O)N3C(C)COCC3c3ccc(C(F)F)cn3)cc12 (stereo not shown) [Example 101] |  |  | 6.00 to 7.00 | > 7.00 |
| CCOc1ccc(CN(CC)C(=O)c2cc3c(cc2F)nc(N)c2cnc(C)n23)nn1 [Example 102] | 5.00 to 6.00 | > 7.00 |  |  |
| CCOCCc1ccc(C2COCC(C)N2C(=O)c2cc3c(cc2F)nc(N)c2c(C)ncn23)nc1 (stereo not shown) [Example 103] | 5.00 to 6.00 | > 7.00 |  |  |
| COCCOc1ccc(C2COCC(C)N2C(=O)c2cc3c(cc2F)nc(N)c2c(C)ncn23)nc1 (stereo not shown) [Example 105] | 5.00 to 6.00 | > 7.00 |  |  |
| Cc1ncn2c1c(N)nc1cc(F)c(C(=O)N3C(c4ccc(C#N)cn4)COC[C@H]3C)cc12 (stereo partly shown) [Example 108] | 5.00 to 6.00 | > 7.00 |  |  |
| Cc1nn(C)cc1N(Cc1ccc(C(F)(F)F)cn1)C(=O)c1cc2c(cc1F)nc(N)c1cnc(C)n12 [Example 109] | 5.00 to 6.00 | > 7.00 |  |  |
| Cc1ncc2c(N)nc3cc(F)c(C(=O)N4C(c5ccc(C(F)F)cn5)COC[C@H]4C)cc3n12 (stereo partly shown) [Example 110] | 6.00 to 7.00 | > 7.00 |  |  |
| Cc1ncn2c1c(N)nc1cc(F)c(C(=O)N3C(C)COCC3c3ccc(C4CCOCC4)cn3)cc12 (stereo not shown) [Example 112] | 5.00 to 6.00 | > 7.00 |  |  |
| Cc1ncc2c(N)nc3cc(F)c(C(=O)N(Cc4ccc(C(F)(F)F)cn4)c4ncn(C)n4)cc3n12 [Example 115] | 5.00 to 6.00 | 6.00 to 7.00 |  |  |
| Cc1ncc2c(N)nc3cc(F)c(C(=O)N(Cc4ccc(OCC(F)(F)F)cn4)c4cnn(C)c4)cc3n12 [Example 116] | 5.00 to 6.00 | 6.00 to 7.00 |  |  |
| Cc1ncc2c(N)nc3cc(F)c(C(=O)N(Cc4ccc(C(F)(F)F)cn4)c4ccn(CCO)n4)cc3n12 [Example 117] | 5.00 to 6.00 | 6.00 to 7.00 |  |  |
| Cc1c(N(Cc2ccc(C(F)(F)F)cn2)C(=O)c2cc3c(cc2F)nc(N)c2cnc(C)n23)cnn1C [Example 118] | 5.00 to 6.00 | > 7.00 |  |  |
| Cc1ncc2c(N)nc3cc(F)c(C(=O)N(Cc4ccc(C(F)(F)F)nn4)c4cnn(C)c4)cc3n12 [Example 119] | 5.00 to 6.00 | 6.00 to 7.00 |  |  |
| Cc1ncc2c(N)nc3cc(F)c(C(=O)N(Cc4ncc(C(F)(F)F)cc4F)c4cnn(C)c4)cc3n12 [Example 120] | 5.00 to 6.00 | > 7.00 |  |  |
| Cc1ncn2c1c(N)nc1cc(F)c(C(=O)N(c3cnn(C)c3)C3COc4ccccc43)cc12 (stereo not shown) [Example 121] |  |  | 5.00 to 6.00 | > 7.00 |
| COc1cc(N(Cc2ccc(C(F)(F)F)cn2)C(=O)c2cc3c(cc2F)nc(N)c2cnc(C)n23)nn1C [Example 122] | 5.00 to 6.00 | 6.00 to 7.00 |  |  |
| COc1ccc(N(Cc2ccc(C(F)(F)F)cn2)C(=O)c2cc3c(cc2F)nc(N)c2cnc(C)n23)cn1 [Example 124] | 5.00 to 6.00 | > 7.00 |  |  |
| Cc1nn(C)cc1N(Cc1cn2cc(C(F)(F)F)ccc2n1)C(=O)c1cc2c(cc1F)nc(N)c1cnn(C)c12 [Example 204] | 5.00 to 6.00 |  |  |  |
| Cn1nccc1N(Cc1cn2cc(C(F)(F)F)ccc2n1)C(=O)c1cc2c(cc1F)nc(N)c1cnn(C)c12 [Example 218] | 5.00 to 6.00 |  |  |  |
| C[C@@H]1COC[C@H](c2cn3ccccc3n2)N1C(=O)c1ccc2nc(N)c3cnn(C)c3c2c1 [Example 416] |  | 6.00 to 7.00 |  |  |
